Like-named read-outs stand apart in the source and are kept apart here.
Legend:
human recombinant AChE = target: T1, human recombinant AChE (Homo sapiens, UniProt P22303); test: biochemical; format: biochemical; details: for IC50: human recombinant AChE; for selectivity for hAChE over hBChE inhibition: ratio of hBChE and hAChE IC50; for fold more potent hAChE inhibitor than pyridostigmine: relative to pyridostigmine
T1 construct: purchased Sigma, Milan, Italy

human serum BChE = human serum BChE (Homo sapiens, UniProt P06276); test: biochemical
Chain of human serum BChE (P06276 29-602): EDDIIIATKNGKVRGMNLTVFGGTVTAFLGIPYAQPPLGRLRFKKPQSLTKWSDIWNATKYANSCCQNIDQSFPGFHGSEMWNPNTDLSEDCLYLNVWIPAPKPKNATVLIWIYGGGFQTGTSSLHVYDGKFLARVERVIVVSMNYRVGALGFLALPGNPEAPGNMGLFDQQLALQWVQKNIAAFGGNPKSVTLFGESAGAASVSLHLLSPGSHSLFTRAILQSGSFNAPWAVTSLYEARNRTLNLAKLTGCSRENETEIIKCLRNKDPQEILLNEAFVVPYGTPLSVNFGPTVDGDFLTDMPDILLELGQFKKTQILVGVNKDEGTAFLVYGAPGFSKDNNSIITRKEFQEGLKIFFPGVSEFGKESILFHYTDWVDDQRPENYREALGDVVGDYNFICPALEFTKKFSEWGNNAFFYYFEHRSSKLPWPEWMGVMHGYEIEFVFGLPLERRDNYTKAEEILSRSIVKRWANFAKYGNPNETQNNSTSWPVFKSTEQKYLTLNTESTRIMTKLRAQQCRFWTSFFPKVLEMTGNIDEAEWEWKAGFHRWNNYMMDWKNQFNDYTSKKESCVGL

[1] = for PAMPA-BBB prediction of BBB permeation: class from Pe value
Description: (§1) The brain permeability (Pe) of the target compounds was determined in vitro using the parallel artificial membrane permeation assay for blood-brain barrier penetration described by Di et al. [41], employing a lipid extract of porcine brain membrane in a mixture of PBS/EtOH 70:30.

in vitro = details: PAMPA
Description: as §1

[2] = commercial drugs used for assay validation; cited from earlier work
[3] = mean ± SEM of at least three experiments, each in duplicate, read-out: hAChE IC50
[4] = mean ± SEM of at least three experiments, each in duplicate, read-out: hBChE IC50

T1 sequence (P22303 32-614): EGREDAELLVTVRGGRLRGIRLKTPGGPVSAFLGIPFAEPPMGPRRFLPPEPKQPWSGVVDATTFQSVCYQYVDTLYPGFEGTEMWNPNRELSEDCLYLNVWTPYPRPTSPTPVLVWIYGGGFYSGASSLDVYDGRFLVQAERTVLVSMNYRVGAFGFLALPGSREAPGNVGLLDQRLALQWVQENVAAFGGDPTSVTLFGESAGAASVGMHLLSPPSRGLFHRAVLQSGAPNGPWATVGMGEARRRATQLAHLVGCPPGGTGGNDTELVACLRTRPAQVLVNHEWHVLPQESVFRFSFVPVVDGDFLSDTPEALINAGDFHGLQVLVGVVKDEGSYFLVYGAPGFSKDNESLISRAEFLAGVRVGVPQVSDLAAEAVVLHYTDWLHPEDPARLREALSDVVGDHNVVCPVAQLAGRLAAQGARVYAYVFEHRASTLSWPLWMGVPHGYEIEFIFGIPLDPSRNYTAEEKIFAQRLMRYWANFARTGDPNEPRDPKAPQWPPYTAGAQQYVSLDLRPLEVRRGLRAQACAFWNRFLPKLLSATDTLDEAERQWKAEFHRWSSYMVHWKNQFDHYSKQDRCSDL

Row | Structure (SMILES) | IC50 (human recombinant AChE; [3]) [nM] | IC50 (human serum BChE; [4]) [nM] | PAMPA-BBB prediction of BBB permeation [1] | Papp (in vitro; pig) [×10⁻⁶ cm/s] | further results
1 | C[n+]1c2c(c(N)c3ccc(Cl)cc31)CCCC2.[I-] [Compound 5, 9-Amino-6-chloro-1,2,3,4-tetrahydro-10-methylacridin-10-ium iodide] | 2450 ± 280 | 22300 ± 1500 | CNS− (low BBB permeation (CNS−) is expected for compounds with Pe < 2.07) |  | Papp (in vitro): 1.2 ± 0.8 ×10⁻⁶ cm/s
2 | Nc1c2c(nc3cc(Cl)ccc13)CCCC2 [6-chlorotacrine, reference compound] |  |  | CNS+ (High BBB permeation (CNS+) is expected for compounds with Pe > 5.19) | 19.8 ± 0.4 | 
3 | CCn1cc(C(=O)O)c(=O)c2cc(F)c(N3CCNCC3)cc21 [Norfloxazin, reference compound] |  |  |  |  | Experimental Pe ([1]; commercial drugs used for assay validation, mean ± SD of three independent experiments): 0.9 ± 0.1 10^−6 cm s^−1
4 | C[n+]1c2c(c(N)c3ccccc31)CCCC2.[I-] [Compound 4, 9-Amino-1,2,3,4-tetrahydro-10-methylacridin-10-ium iodide] | 12000 ± 1000 | 2850 ± 190 | CNS− (low BBB permeation (CNS−) is expected for compounds with Pe < 2.07) |  | Papp (in vitro): 1.7 ± 1.5 ×10⁻⁶ cm/s
5 | CN1C(C(=O)Nc2ccccn2)=C(O)c2ccccc2S1(=O)=O [Piroxicam] |  |  |  |  | Reported Pe [2]: 2.5 10^−6 cm s^−1
6 | CN(C)CCCN1c2ccccc2Sc2ccccc21 [Promazine] |  |  |  |  | Reported Pe [2]: 8.8 10^−6 cm s^−1
7 | COc1cc(CNC(=O)Cc2cn(CCNc3c4c(nc5cc(Cl)ccc35)CCCC4)nn2)ccc1O [Compound 16, 2-{1-[2-(6-Chloro-1,2,3,4-tetrahydroacridin-9-ylamino)ethyl]-1H-1,2,3-triazol-4-yl}-N-[4-(hydroxy)-3-methoxybenzyl]acetamide] | 10 | 290 ± 10 | CNS± | 2.97 ± 0.61 | IC50 (human recombinant AChE; values given in nM (table footnotes, text), read-out: IC50 hAChE): 7.18 nM; selectivity for hAChE over hBChE inhibition (human recombinant AChE): 40; fold more potent hAChE inhibitor than pyridostigmine (human recombinant AChE): 192 fold
8 | OCCc1cn(CCNc2c3c(nc4cc(Cl)ccc24)CCCC3)nn1 [Compound 10, 2-{1-[2-(6-Chloro-1,2,3,4-tetrahydroacridin-9-ylamino)ethyl]-1H-1,2,3-triazol-4-yl}ethanol] | 200 ± 10 | 3250 ± 170 | CNS− (low BBB permeation (CNS−) is expected for compounds with Pe < 2.07) | 0.02 ± 0.001 | selectivity for hAChE over hBChE inhibition (human recombinant AChE): 16; fold more potent hAChE inhibitor than pyridostigmine (human recombinant AChE): 7 fold
9 | OCCc1cn(CCNc2c3c(nc4ccccc24)CCCC3)nn1 [Compound 9, 2-{1-[2-(1,2,3,4-Tetrahydroacridin-9-ylamino)ethyl]-1H-1,2,3-triazol-4-yl}ethanol] | 1730 ± 120 | 170 ± 10 | CNS− (low BBB permeation (CNS−) is expected for compounds with Pe < 2.07) | 0.03 ± 0.001 | 
10 | CC1=CC2Cc3c(c(N)c4ccc(Cl)cc4[n+]3C)C(C1)C2.[I-] (centres unmarked) [Compound 6, 12-Amino-3-chloro-6,7,10,11-tetrahydro-5,9-dimethyl-7,11-methanocycloocta[b]quinolin-5-ium iodide] |  |  | CNS+ (High BBB permeation (CNS+) is expected for compounds with Pe > 5.19) |  | PAMPA-BBB Pe ([1]; PBS/EtOH 70:30, mean of three independent experiments ± SD): 10.90 10^−6 cm/s; Papp (in vitro): 10.9 ± 1.5 ×10⁻⁶ cm/s
11 | COc1cc(CNC(=O)Cc2cn(CCNc3c4c(nc5ccccc35)CCCC4)nn2)ccc1O [Compound 15, N-[4-(hydroxy)-3-methoxybenzyl]-2-{1-[2-(1,2,3,4-tetrahydroacridin-9-ylamino)ethyl]-1H-1,2,3-triazol-4-yl}acetamide] | 250 ± 10 | 50 | CNS− (low BBB permeation (CNS−) is expected for compounds with Pe < 2.07) | 0.03 ± 0.001 | IC50 (human serum BChE; values given in nM (table footnotes), read-out: IC50 hBChE): 54.8 nM
